Values of other authors, collected in patent publication US20050014827A1, “Synergistic medicament containing flavoring agents and having an antagonistic regenerative and/or protagonist decontamination effect” (priority 2000, published 2005).

Key:
reverse transcriptase = conditions: 19% ethanol
HTLV-III/LAV/HIV = conditions: 50% ethanol; 23° C.; 10 min; with and without additional protein loading
HBV = conditions: 70% isopropyl alcohol; 10 min; room temperature; serum dried onto plastic surface

Row | SMILES | detection of viral reverse transcriptase (reverse transcriptase) | infectiousness of the virus (HTLV-III/LAV/HIV) | inactivation of 10^6 HBV doses infectious towards chimpanzees (HBV)
1 | CCO [ethanol] | can no longer be detected | destroys the infectiousness | 
2 | CC(C)O [isopropyl alcohol] |  |  | inactivated
